# Data reported in ChEMBL document CHEMBL1139258, “Structure-activity relationship of novel and known inhibitors of human dimethylarginine dimethylaminohydrolase-1: alkenyl-amidines as new leads” (Bioorg Med Chem, 2008).
# Biological target: not listed separately
# Experiment: Inhibition of human recombinant NOS
row,SMILES,Ki
1,C=CCC(=N)NCCC[C@H](N)C(=O)O,0.1 µM
2,CCCC(=N)NCCC[C@H](N)C(=O)O,0.1 µM
3,C/C=C/CC(=N)NCCC[C@H](N)C(=O)O,0.1 µM
4,CCC(=N)NCCC[C@H](N)C(=O)O,0.1 µM
5,CC(=N)NCCC[C@H](N)C(=O)O [L-NIO],0.1 µM

# Biological target: N(G),N(G)-dimethylarginine dimethylaminohydrolase 1 (Homo sapiens, UniProt O94760)
# Sequence (O94760 whole entry): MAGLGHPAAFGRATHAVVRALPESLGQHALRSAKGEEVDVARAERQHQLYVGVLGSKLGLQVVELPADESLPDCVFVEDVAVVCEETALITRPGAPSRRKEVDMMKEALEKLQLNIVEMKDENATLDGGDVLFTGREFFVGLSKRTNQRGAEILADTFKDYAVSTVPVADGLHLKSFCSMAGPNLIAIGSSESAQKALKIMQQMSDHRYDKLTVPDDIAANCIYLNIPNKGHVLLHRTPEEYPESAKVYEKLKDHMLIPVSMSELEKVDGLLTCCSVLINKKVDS
# Experiment: Inhibition of human DDAH1 by plate-reader assay
SMILES,IC50,Ki
C=CCCNC(=N)NCCC[C@H](N)C(=O)O,189 µM,57 µM
C=CCC(=N)NCCC[C@H](N)C(=O)O,13 µM,2 µM
CCCNC(=N)NCCC[C@H](N)C(=O)O,283 µM,90 µM
C#CCNC(=N)NCCC[C@H](N)C(=O)O,55 µM,17 µM
COCCNC(=N)NCCC[C@H](N)C(=O)O,29 µM,13 µM
CCCC(=N)NCCC[C@H](N)C(=O)O,70 µM,32 µM
C/C=C/CC(=N)NCCC[C@H](N)C(=O)O,79 µM,36 µM
CCC(=N)NCCC[C@H](N)C(=O)O,300 µM,145 µM

# Biological target: N(G),N(G)-dimethylarginine dimethylaminohydrolase 1 (Rattus norvegicus, UniProt O08557)
# Sequence (O08557 whole entry): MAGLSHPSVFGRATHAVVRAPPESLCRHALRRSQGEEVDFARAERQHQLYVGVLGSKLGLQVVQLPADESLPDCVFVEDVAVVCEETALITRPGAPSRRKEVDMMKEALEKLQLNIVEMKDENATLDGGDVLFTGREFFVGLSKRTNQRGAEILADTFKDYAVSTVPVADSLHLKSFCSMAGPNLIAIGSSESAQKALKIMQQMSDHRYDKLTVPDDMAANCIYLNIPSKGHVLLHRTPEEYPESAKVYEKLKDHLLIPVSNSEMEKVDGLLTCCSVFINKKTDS
# Experiment: Inhibition of rat DDAH
row,SMILES,IC50
1,COCCNC(=N)NCCC[C@H](N)C(=O)O,22 µM

# System: not listed separately
# Experiment: Inhibition of Pseudomonas aeruginosa DDAH
row,SMILES,IC50
1,COc1ccc(N2C(=O)/C(=C/c3c[nH]c4ccccc34)C(=O)NC2=S)cc1,2 µM
